Measured values published in patent US20240287062A1, “NAPHTHYRIDONE COMPOUNDS FOR INHIBITION OF RAF KINASES AND/OR BCR-ABL TYROSINE KINASES” (Enliven Inc., priority 2021, published 2024).

Key:
Assay in all cases: Radioactivity-based ABL kinase assay
Assay type in all cases: biochemical
Conditions in all cases: 100 μM 33P-ATP
ABL1 (F317L) = ABL1 (F317L) (Homo sapiens (Human), UniProt P00519, F317L)
Experimental: (§1) The following kinase assay was based on Anastassiadis et al (2011) Nat Biotech, 29:1039-1045. Briefly, ABL kinase substrate (ABLtide: EAIYAAPFAKKK; Genscript) was freshly prepared in reaction buffer (20 mM HEPES pH 7.5, 10 mM MgCl2, 1 mM EGTA, 0.02% Brij-35, 0.02 mg/ml BSA, 0.1 mM Na3VO4, 2 mM DTT, and 1% DMSO) to a final substrate concentration of 20 μM. ABL wild type and ABL mutant kinases were added to the substrate solution and mixed to the final enzyme concentrations shown in Table 3 below.
(§2) Serial dilutions of compounds were prepared in 100% DMSO Compounds or DMSO only (vehicle control) were then added to the kinase reaction mixture and incubated for 20 minutes at room temperature. 100 μM ^33P-ATP (specific activity 10 μCi/μl) was then added to the kinase reaction mixture to initiate the kinase reaction. This mixture was incubated for 2 hours at room temperature. Radioactivity was then measured by radioisotope filter-binding. Kinase activity data were expressed as the percent remaining kinase activity in test samples compared to vehicle control reactions. IC50 values and curve fits were obtained using a nonlinear regression model with a sigmoidal dose response (Prism GraphPad Software).

ABL1 (F317I) = ABL1 (F317I) (Homo sapiens (Human), UniProt P00519, F317I)
Experimental: as §1, §2

ABL1 (M351T) = ABL1 (M351T) (Homo sapiens (Human), UniProt P00519, M351T)
Experimental: as §1, §2

`Cc1c(F)cncc1-c1cc2cnc(NC(=O)C3CC3)cc2n(C)c1=O` [Compound 2, N-[3-(5-fluoro-4-methylpyridin-3-yl)-1-methyl-2-oxo-1,6-naphthyridin-7-yl]cyclopropanecarboxamide] was tested, and the IC50 (ABL1 (F317L)) was 17 nM, the IC50 (ABL1 (F317I)) was 47 nM and the IC50 (ABL1 (M351T)) was 1.5 nM.

Work on `Cc1c(F)cncc1-c1cc2cnc(NC(=O)[C@@H]3C[C@@H]3F)cc2n(C)c1=O` [Compound 28, (1S,2S)-2-fluoro-N-[3-(5-fluoro-4-methylpyridin-3-yl)-1-methyl-2-oxo-1,6-naphthyridin-7-yl]cyclopropane-1-carboxamide] yielded an IC50 (ABL1 (F317L)) of 107 nM, an IC50 (ABL1 (F317I)) of 114 nM and an IC50 (ABL1 (M351T)) of 4.5 nM.
